Results from patent US10662193B2, “Carbazole and carboline compounds for use in the diagnosis, treatment, alleviation or prevention of disorders associated with amyloid or amyloid-like proteins” (AC IMMUNE SA, priority 2014, dated 2020).

Tests used:
[1] = test system: tau tangles/Aβ plaques on AD brain sections; assay: Assay 1: direct staining of human Alzheimer's disease brain sections (fluorescence); type: binding; set-up: key to Direct staining of tau tangles/Aβ plaques on AD brain sections at 100 μM / Direct staining of tau tangles on AD brain sections at 100 μM / Direct staining of Aβ plaques on AD brain sections at 100 μM / Direct staining of tau tangles on AD brain sections (footnote a: at 250 μM): − (No); +++ (strong); ++ (good); + (weak); conditions: tangles; for Direct staining of tau tangles on AD brain sections at 100 μM: 100 μM compound
Outline: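 Frozen […] amygdala sections from Braak V-VI AD donors, PFA-fixed, incubated with compound at 100 μM in 50% ethanol for 20 min at room temperature in the dark. Sudan Black quenched autofluorescence, then staining detected by fluorescence microscopy.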

[2] = target: T1, in vitro aggregated Abeta1-42 (Homo sapiens, UniProt P05067); assay: Assay 2 (filter trap): [3H]RefA competition and Ki on aggregated Abeta1-42 (selectivity tau versus Abeta); type: binding; conditions: Table 24; fold increase of the Ki on aggregated Abeta1-42 versus PHF
T1 construct: Abeta1-42 (Bachem, Switzerland) peptide films were re-suspended in 1% DMSO; purchased Bachem, Switzerland
T1 sequence (P05067 672-713 limits assumed): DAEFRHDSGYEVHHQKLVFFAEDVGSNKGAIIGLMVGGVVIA
Method: Recombinant human full-length Tau441 (flTau) was expressed in bacteria and purified in the laboratory of Professor Hilal Lashuel (EPFL, Switzerland). A solution of 8 μM (400 μg/mL) flTau in PBS, 10 μM DTT and 5 μM heparin (all from Sigma-Aldrich) was gently mixed (cradled) for 3 days at 37° C. Cradled flTau aggregates were used at a final concentration of 20 μg/mL in all binding assays. Abeta1-42 (Bachem, Switzerland) peptide films were re-suspended in 1% DMSO and diluted in PBS to a 33 μM (150 μg/mL) suspension that was sonicated until complete dissolution. Aggregation process was done at 37° C. for 24 hours. Aggregated Abeta1-42 was used at a concentration of 20 μg/mL in all binding assays.
AD brain-enriched PHF diluted 1/80 were incubated in the presence of [^3H]RefA at 10 nM and the example compounds of this invention at 2.5 μM (250× excess), for 45 minutes at 37° C. Samples were then analyzed by on GF/B filter plates as described above (in the section “[^3H]RefA radio-binding assay and determination of the dissociation constant (Kd)). Non-specific signal was determined again with an excess of un-labeled RefA and specific binding calculated by subtracting the non-specific signal from the total signal. […]

SMILES	Direct staining of tau tangles on AD brain sections (footnote a: at 250 μM) ([1]; 250 μM compound)	Fold increase on Abeta1-42 vs PHF [2]	Direct staining of tau tangles on AD brain sections at 100 μM [1]
Cn1c2ccncc2c2ccc(Nc3ccc(F)c(F)c3)nc21 [Example 2]	+ (tangles)^a	–	–
Cn1c2ccncc2c2ccc(Nc3cccc(OCCF)c3)nc21 [Example 8]	–	0.5	++ (tangles)
Cn1c2ccncc2c2ccc(Nc3ccc(OC(F)F)cc3)nc21 [Example 9]	–	200	++ (tangles)
